Results reported in ChEMBL document CHEMBL1201862, “PubChem BioAssay data set” (2004).
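All cell lines were grown in 96-well plates and treated with compound for 48 hours. GI50 marks 50% less growth.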 Calls of active or inactive are those of the source. Cut-off read from the data, not from the text of the source: active = GI50 up to about 1.1 µM and inactive = higher.

Key:
Test in all cases: growth of human tumour cells (NCI), 48 h
OVCAR-3 = test system: OVCAR-3
SF-268 = test system: SF-268
HL-60 = test system: HL-60
DMS-273 = test system: DMS-273
XF498 = test system: XF498
Malme-3M = test system: Malme-3M
SR = test system: SR
UACC-257 = test system: UACC-257
DLD-1 = test system: DLD-1
KM-20L2 = test system: KM-20L2
HCT-15 = test system: HCT-15
NCI-H522 = test system: NCI-H522
CAKI-1 = test system: CAKI-1
SK-OV-3 = test system: SK-OV-3
ACHN = test system: ACHN
SF-295 = test system: SF-295
A498 = test system: A498
SW-620 = test system: SW-620
HOP-62 = test system: HOP-62
M19-MEL = test system: M19-MEL
786-0 = test system: 786-0
U-251 = test system: U-251
RXF 393 = test system: RXF 393
HT-29 = test system: HT-29
A549 = test system: A549
UO-31 = test system: UO-31
SK-MEL-5 = test system: SK-MEL-5
MOLT-4 = test system: MOLT-4
M14 = test system: M14
SNB-75 = test system: SNB-75
OVCAR-4 = test system: OVCAR-4
LXFL 529 = test system: LXFL 529
IGROV-1 = test system: IGROV-1
UACC-62 = test system: UACC-62
OVCAR-8 = test system: OVCAR-8
RPMI-8226 = test system: RPMI-8226
SK-MEL-2 = test system: SK-MEL-2
SNB-19 = test system: SNB-19
NCI-H23 = test system: NCI-H23
SF-539 = test system: SF-539
HCC 2998 = test system: HCC 2998
LOX IMVI = test system: LOX IMVI
EKVX = test system: EKVX
K562 = test system: K562
HCT-116 = test system: HCT-116
RXF 631 = test system: RXF 631
CCRF-CEM = test system: CCRF-CEM
DMS-114 = test system: DMS-114
COLO 205 = test system: COLO 205
NCI-H460 = test system: NCI-H460
KM12 = test system: KM12
DU-145 = test system: DU-145
MDA-MB-435 = test system: MDA-MB-435
MCF7 = test system: MCF7
TK-10 = test system: TK-10
MDA-MB-231 = test system: MDA-MB-231
HOP-92 = test system: HOP-92
NCI-H226 = test system: NCI-H226
BT-549 = test system: BT-549
SNB-78 = test system: SNB-78
OVCAR-5 = test system: OVCAR-5
Hs-578T = test system: Hs-578T
HOP-18 = test system: HOP-18
T47D = test system: T47D
SK-MEL-28 = test system: SK-MEL-28
SN12C = test system: SN12C

## COc1ccc(S(=O)(=O)N/N=C/CN2C(=O)c3ccccc3C2=O)cc1OC
OVCAR-3
  GI50: > 100 µM (inactive)
SF-268
  GI50: > 100 µM (inactive)
HL-60
  GI50: > 100 µM (inactive)
DMS-273
  GI50: > 100 µM (inactive)
XF498
  GI50: > 100 µM (inactive)
Malme-3M
  GI50: > 100 µM (inactive)
SR
  GI50: > 100 µM (inactive)
UACC-257
  GI50: > 100 µM (inactive)
DLD-1
  GI50: > 100 µM (inactive)
KM-20L2
  GI50: > 100 µM (inactive)
HCT-15
  GI50: > 100 µM
NCI-H522
  GI50: > 100 µM (inactive)
CAKI-1
  GI50: > 100 µM (inactive)
SK-OV-3
  GI50: > 100 µM (inactive)
ACHN
  GI50: > 100 µM (inactive)
SF-295
  GI50: > 100 µM (inactive)
A498
  GI50: > 100 µM (inactive)
SW-620
  GI50: > 100 µM (inactive)
HOP-62
  GI50: > 100 µM (inactive)
M19-MEL
  GI50: > 100 µM (inactive)
786-0
  GI50: > 100 µM (inactive)
U-251
  GI50: > 100 µM (inactive)
RXF 393
  GI50: > 100 µM (inactive)
HT-29
  GI50: > 100 µM (inactive)
A549
  GI50: > 100 µM (inactive)
UO-31
  GI50: > 100 µM (inactive)
SK-MEL-5
  GI50: > 100 µM (inactive)
MOLT-4
  GI50: > 100 µM (inactive)
M14
  GI50: > 100 µM (inactive)
SNB-75
  GI50: 65.2 µM (inactive)
OVCAR-4
  GI50: > 100 µM (inactive)
LXFL 529
  GI50: > 100 µM (inactive)
IGROV-1
  GI50: > 100 µM (inactive)
UACC-62
  GI50: > 100 µM (inactive)
OVCAR-8
  GI50: > 100 µM (inactive)
RPMI-8226
  GI50: > 100 µM (inactive)
SK-MEL-2
  GI50: > 100 µM (inactive)
SNB-19
  GI50: > 100 µM (inactive)
NCI-H23
  GI50: > 100 µM (inactive)
SF-539
  GI50: > 100 µM (inactive)
HCC 2998
  GI50: > 100 µM (inactive)
LOX IMVI
  GI50: > 100 µM (inactive)
EKVX
  GI50: > 100 µM (inactive)
K562
  GI50: > 100 µM (inactive)
HCT-116
  GI50: > 100 µM (inactive)
RXF 631
  GI50: > 100 µM (inactive)
CCRF-CEM
  GI50: > 100 µM (inactive)
DMS-114
  GI50: > 100 µM (inactive)
COLO 205
  GI50: > 100 µM (inactive)
NCI-H460
  GI50: > 100 µM (inactive)
KM12
  GI50: > 100 µM (inactive)

## COc1ccc2c(c1)C=C([N+](=O)[O-])C(C1OC(C)(C)OC1C1COC(C)(C)O1)O2 (stereo unspecified)
OVCAR-3
  GI50: 8.69 µM (inactive)
DU-145
  GI50: 16 µM (inactive)
SF-268
  GI50: 3.5 µM (inactive)
HL-60
  GI50: 1.86 µM (inactive)
DMS-273
  GI50: 2.9 µM (inactive)
XF498
  GI50: 11 µM (inactive)
Malme-3M
  GI50: 2.31 µM (inactive)
SR
  GI50: 1.55 µM (inactive)
UACC-257
  GI50: 2.77 µM (inactive)
DLD-1
  GI50: 1.51 µM (inactive)
KM-20L2
  GI50: 5.08 µM (inactive)
HCT-15
  GI50: 1.95 µM
NCI-H522
  GI50: 0.731 µM (active)
CAKI-1
  GI50: 4.51 µM (inactive)
SK-OV-3
  GI50: 11 µM (inactive)
ACHN
  GI50: 2.4 µM (inactive)
SF-295
  GI50: 7.89 µM (inactive)
MDA-MB-435
  GI50: 3.06 µM (inactive)
A498
  GI50: 18 µM (inactive)
SW-620
  GI50: 2.26 µM (inactive)
HOP-62
  GI50: 20 µM (inactive)
M19-MEL
  GI50: 1.63 µM (inactive)
786-0
  GI50: 12.8 µM (inactive)
MCF7
  GI50: 2.54 µM (inactive)
U-251
  GI50: 3.01 µM (inactive)
RXF 393
  GI50: 1.98 µM (inactive)
TK-10
  GI50: 18.4 µM (inactive)
HT-29
  GI50: 1.97 µM (inactive)
A549
  GI50: 18 µM (inactive)
UO-31
  GI50: 13.1 µM (inactive)
MDA-MB-231
  GI50: 2.36 µM (inactive)
SK-MEL-5
  GI50: 2.82 µM (inactive)
MOLT-4
  GI50: 1.79 µM (inactive)
HOP-92
  GI50: 16.1 µM (inactive)
NCI-H226
  GI50: 14.6 µM (inactive)
M14
  GI50: 2.07 µM (inactive)
SNB-75
  GI50: 14.5 µM (inactive)
OVCAR-4
  GI50: 8.17 µM (inactive)
BT-549
  GI50: 2.74 µM (inactive)
LXFL 529
  GI50: 3.81 µM (inactive)
IGROV-1
  GI50: 14.6 µM (inactive)
UACC-62
  GI50: 1.82 µM (inactive)
SNB-78
  GI50: 2.79 µM (inactive)
OVCAR-8
  GI50: 2.85 µM (inactive)
RPMI-8226
  GI50: 1.67 µM (inactive)
SK-MEL-2
  GI50: 1.87 µM (inactive)
SNB-19
  GI50: 11.9 µM (inactive)
OVCAR-5
  GI50: 8.04 µM (inactive)
NCI-H23
  GI50: 11.6 µM (inactive)
Hs-578T
  GI50: 4.18 µM (inactive)
HOP-18
  GI50: 24.7 µM (inactive)
SF-539
  GI50: 5.66 µM (inactive)
HCC 2998
  GI50: 13.3 µM (inactive)
LOX IMVI
  GI50: 1.49 µM (inactive)
EKVX
  GI50: 13.8 µM (inactive)
T47D
  GI50: 12 µM (inactive)
K562
  GI50: 1.44 µM (inactive)
SK-MEL-28
  GI50: 1.74 µM (inactive)
HCT-116
  GI50: 1.79 µM (inactive)
CCRF-CEM
  GI50: 0.386 µM (active)
DMS-114
  GI50: 2.88 µM (inactive)
COLO 205
  GI50: 10.8 µM (inactive)
SN12C
  GI50: 4.91 µM (inactive)
NCI-H460
  GI50: 3.64 µM (inactive)
KM12
  GI50: 2 µM (inactive)
